Where “and” joins values, the source holds several entries; their conditions need not be identical. Identical values can stand only once.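 Interpolation was linear, between the two tested concentrations surrounding the appropriate level; five concentrations were tested over 48 hours in 96-well plates. Abbreviation: GI50, concentration required for 50% inhibition of growth. TGI: concentration producing complete growth inhibition.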
Tested on: MDA-MB-468 breast
Assay: growth of human tumour cells (NCI), 48 h

| Compound | GI50 | TGI |
| --- | --- | --- |
| C#Cc1cccc(NC(=O)Nc2ccc(NC(=O)CCl)cc2)c1 | 13300 nM | 32.1 µM |
| Nc1nc(-n2cccn2)nc(-n2cccn2)c1Br | > 100000 nM | > 100 µM |
| O=C(Oc1ccccc1)c1cc(O)c(O)c(O)c1 | 12600 nM | 67.5 µM |
| Cc1cccc2c3c(sc12)C(c1ccc(Cl)cc1)C(C#N)=C(/N=C/c1ccc(Cl)cc1)O3 (stereo unspecified) | 257 nM | 2 µM |
| COc1ccc2c(c1)[nH]c(=O)c1c3cccnc3cn21 | 133 nM | 2.33 µM |
| CC1OC(O[C@@H]2C(O)C(CO)OC(O[C@H]3COC(O[C@H]4CC[C@]5(C)[C@H]6CC[C@]78OC[C@@]9(CC[C@](C)(C=O)C[C@H]97)[C@H](O)C[C@@]8(C)[C@]6(C)CC[C@H]5C4(C)C)[C@@H](OC4OC(CO)[C@@H](O)[C@@H](O)[C@@H]4O)[C@@H]3O)[C@H]2OC2OC[C@@H](O)[C@@H](O)[C@@H]2O)[C@@H](O)[C@@H](O)[C@H]1O (stereo partly specified) | 1590 nM | 3.28 µM |
| O=C(CNC(=O)c1cccc2ccccc12)Nc1ccccc1Oc1cccc(O)c1 | 3550 nM | 19.4 µM |
| Cc1sc2ncnc(Sc3nc4ccccc4[nH]3)c2c1C | 17700 nM | 60.5 µM |
| O=[N+]([O-])c1cccc(-c2nc3sccn3c2-c2ccnc(NCCCNS(=O)(=O)c3ccc(F)cc3)n2)c1 | 1500 nM | 7.11 µM |
| Clc1cc(Cl)cc(N2N=C(c3cccc(Nc4ccncc4)c3)CC2c2ccccc2)c1 (stereo unspecified) | 1520 nM | 3.01 µM |
| CC(=O)OCC(=O)[C@@]1(O)[C@H](C)C[C@H]2[C@@H]3C=C(C)C4=Cc5c(cnn5-c5ccc(F)cc5)C[C@]4(C)[C@H]3[C@@H](O)C[C@@]21C | 2010 nM | 3.92 µM |
| O=c1cc/c(=N\Nc2ccccc2)c(=O)/c1=N/Nc1ccccc1 | > 50000 nM | > 50 µM |
| N#Cc1nc(-c2cccc(Br)c2)cc(-c2ccc(Nc3nc(N4CCCCC4)nc(N4CCCCC4)n3)cc2)c1N | 2160 nM | 5.64 µM |
| Cn1cnc2c(F)c(Nc3ccc(Br)cc3Cl)c(C(=O)NOCCO)cc21 | > 10000 nM and 11900 nM | > 10 µM and 71.1 µM |
| CCCCCC(=O)N1c2ccccc2NC2=C(C(=O)CC(c3ccc(OC)c(OC)c3)C2)C1c1ccc(C(F)(F)F)cc1 (stereo unspecified) | > 100000 nM | > 100 µM |
| Cc1ccc(NC(=O)c2ccnc(C(F)(F)F)c2)cc1-c1cc(OCCO)nc(N2CCOCC2)c1 | 1820 nM | 7.09 µM |
| S=C(Nc1ccccc1)c1ccccn1 | 45300 nM | > 100 µM |
| Cn1cc(-c2cc3ncnc(Nc4ccc(NC(=O)Nc5cc(C(C)(C)C)on5)cc4)c3s2)cn1 | 920 nM | 4.75 µM |
| COc1ccc(C2CC(=O)Nc3c2c(C)nn3-c2nc3ccccc3[nH]2)cc1 (stereo unspecified) | 2860 nM | 12.6 µM |
| CCCCCCn1c(-c2ccc(C(=O)O/N=C(\N)c3ccc(OC)cc3)cc2)nc(-c2ccccc2)c1-c1ccccc1 | 1750 nM | 3.51 µM |
| COc1cc(C)cc2c1OC(c1ccccc1)CC2=O (stereo unspecified) | > 100000 nM | > 100 µM |
| OCCNc1nc(NCCO)nc(Nc2ccc(C3=NN(c4cc(Cl)cc(Cl)c4)C(c4ccc(Cl)cc4)C3)cc2)n1 (stereo unspecified) | 1920 nM | 3.77 µM |

| Compound | GI50 | TGI |
| --- | --- | --- |
| COC(=O)Nc1ccc2ccc3c(NC(=O)OC)ccc4ccc1c2c43 (tested in a mixture with another compound) | 3800 nM | 19.2 µM |
| CCN(CC)CCC(=O)Nc1cccc2c1C(=O)c1c(c(O)c3ccccc3c1O)C2=O | > 100000 nM | > 100 µM |
| COC(=O)c1c2c(c(C)[n+]([O-])c1C)C(=O)C=C(NCc1ccc(Cl)cc1)C2=O | 223 nM | 0.76 µM |
| C=C1C(=O)O[C@H]2[C@H]1CC/C(COC(=O)NCCc1ccc(OC)cc1)=C\CC[C@@]1(C)O[C@@H]21 | 1550 nM | 3.85 µM |
| CC(C)(C)Cn1c(N)nc2ccc(-c3[nH]c(C(C)(C)C)nc3-c3ccc(F)cc3)nc21 | 3100 nM | 16.8 µM |
| FC(F)(F)c1ccc2c(c1)N(CCCN1CCN(C3CC3)CC1)c1ccccc1S2 | 3840 nM | 15.1 µM |
| COc1cc2c3c(n(CCCNC4CCCC4)c(=O)c2cc1OC)-c1cc2c(cc1C3=O)OCO2 | 5600 nM | 19.6 µM |
| N#C/C(=C\c1cn(-c2ccccc2)c2ccccc12)C(=O)O | 50700 nM | > 100 µM |
| CNC(=O)c1cc(Oc2ccc3nc(NC(=O)Nc4ccc(Cl)c(Cl)c4)sc3c2)ccn1 | 1970 nM | 5.09 µM |
| Cc1cn(-c2cc(NC(=O)c3cncc(C#Cc4cnc5ccc(OCCCS(C)(=O)=O)nn45)c3)cc(C(F)(F)F)c2)cn1 | 2200 nM | 7.33 µM |
| COc1nccc(-c2c(-c3ccc(F)cc3)ncn2C2CCC(O)CC2)n1 (stereo unspecified) | 21600 nM | > 89.4 µM |
| c1ccc(-c2nc(Nc3ccc(-c4nc5ccccc5[nH]4)cc3)nc(N3CCOCC3)n2)cc1 | 2130 nM | 4.39 µM |
| CCCCCCN1C(=O)/C(=c2\sc3n(c2=O)C2C(NN=3)N(CC)C(=O)N2CC)c2ccccc21 (stereo unspecified) | 1410 nM | > 50 µM |
| COc1ccc(/C=C/C(=O)c2ccc(Nc3ncnc4ccccc34)cc2)cc1OC | 2170 nM | 7.29 µM |
| COc1cc(N2CCC(N(C)C)CC2)ccc1Nc1ncc(Cl)c(Nc2ccccc2P(C)(C)=O)n1 | 1220 nM and 897 nM | 3.71 µM and 4.49 µM |
| O=C(Nc1ccccc1Cl)c1cnc2ccc(C3CCNCC3)cn12 | 2130 nM | 9.54 µM |
| [N-]=[N+]=Nc1ncc(-c2ccc(C(F)(F)F)cc2)c(NC2CCCCCC2)n1 | > 10000 nM | > 10 µM |
| O=C(O)C(/C=C/c1ccco1)=N\Nc1nc(-c2ccc(Cl)cc2)cs1 | 10600 nM | > 50 µM |
| CCCCCCCCCCCCCCCCCCOc1ccccc1CC(=O)OCC[N+](C)(C)C | 1370 nM | 3.05 µM |
| CN(C)c1cccc2[nH]c(-c3[nH]ncc3Nc3ccnc(N)n3)nc12 | 14.5 nM | 0.0422 µM |
| CCN(CC)c1ccc(/C=N/NC(=O)c2ccc(Nc3ccnc(C(F)(F)F)c3)cc2)c(O)c1 | 227 nM | 0.956 µM |
